According to patent US20110060000A1, “ACRIDINE ANALOGS IN THE TREATMENT OF GLIOMAS” (priority 2009, published 2011):

How the values were obtained:
[1] = system: glioma cells; test: Gliotoxicity, cell line not stated; assay type: cell-based
From the text: Spiperone is a selective D2 dopamine receptor antagonist. This drug is used in the treatment of schizophrenia and other hallucinatory states. […] In an effort to develop Structure-Activity Relationships around the chosen compounds, a search of commercially available compounds that are either close structural analogs of these lead compounds (for example, acridine and quinoline analogs of quinacrine) or are related to these in terms of their pharmacological activity (dopamine receptor antagonists related to spiperone) was performed.

[2] = system: subcutaneous U87-MG gliomas; test: Mice bearing subcutaneous U87-MG gliomas; assay type: in vivo
From the text: The estimated survival prolongment is 14 days in mice life which compares at 851 days in human life based on a life expectancy of 18 months in mice and 90 years in human. Also, since one animal was tumor-free at the end of the treatment that translates in an expected 16% cure rate.
FIG. 29a graphs % tumor weight/control as a function of days after implantation. […] Such a profile indicates effectiveness in vivo for both treatment and for prevention of relapse. FIG. 29b graphs % animal survival as a function of days after implantation. […] Such a profile indicates effectiveness in vivo for both treatment and for prevention of relapse.
Mice bearing subcutaneous gliomas were received daily oral administration of 200 mg/kg of quinacrine. […] In FIG. 29 is shown the effect of 100 mg/kg of quinacrine and 10 mg/kg 9-aminoacridine in Mice bearing subcutaneous U87-MG gliomas.

[3] = system: U87-MG skin xenograft tumor explants; test: U87-MG skin xenograft tumor explants, ERSR markers; assay type: in vivo, mice; conditions: samples after 7 and 21 days
From the text: U7 represents vehicle treated sample after 7 days. U21 represents vehicle treated sample after 21 days. Q7 represents quinacridine-treated sample after 7 days. Q21 represents quinacridine-treated sample after 21 days. 9AA-7 represents 9-aminoacridine-treated sample after 7 days. 9AA-21 represents 9-aminoacridine-treated sample after 21 days.

[4] = system: DNA; conditions: cited from earlier work
[5] = system: C6; test: TUNEL labeling in C6; assay type: cell-based, rat; conditions: C6, 24 hours
Description: C6 were plated on glass coverslips. Cells were fixed and stained accordingly to manufacturer instructions. Propidium staining of the nuclei was replaced by Hoechst included in the mounting media. Several images were acquired with a high resolution camera on a microscope equipped with a 10× long working distance dry lens and analyzed with powerful commercial software. Results were expressed in the graph as green labeled pixel counts. The images from the top to the bottom are respectively from N.T., DMSO, Thap 20 nM, Thap 200 nM, STS100 nM. The blue images reflect nuclear staining while the images on the right represent BRDU staining.
Thereafter, cells were harvested and protein extracted. Procaspase 12 band at 65 kDa was identified. In some of the treatments, the active product at 45 kDa was also detected. […] Conversely, in C6, higher GRP78 levels and the cell environment reflect significant caspase activation. […] Caspase activation in ERSR conditions was also confirmed with a TUNEL based apoptosis detection system in C6. […] High resolution images of the experiments were acquired and image morphometric analysis was performed to determine quantitative parameters of the staining as previously described (Pascale et al., 2004, “Translocation of protein kinase C-betaII in astrocytes requires organized actin cytoskeleton and is not accompanied by synchronous RACK1 relocation.” Glia 46(2): 169-82). […]

[6] = 200 mg/kg daily oral for 14 days
[7] = full dose over about 45 days, Q oral, 9-AA I.P.
[8] = half dose (maintenance dose) up to about 60 days

Row | SMILES | cytotoxicity in human cells versus rat cells [1] | gliotoxicity ([1]; cell line not stated) | antiglioma action ([2]; 100 mg/kg of quinacrine and 10 mg/kg 9-aminoacridine) | delay in tumor growth ([2]; 200 mg/kg daily oral) [days] | tumor growth after withdrawal of treatment versus controls ([2]; 200 mg/kg daily oral) | estimated survival prolongment in mice life [2, 6] [days] | tumor in one of the treated animals [2, 6] | tumor size in treated animals [2, 6] | effect on tumor growth ([2]; 200 mg/kg daily oral, at 11 days) | inhibition of tumor growth ([2]; 200 mg/kg daily oral, at 21 days) | animal survival rate compared to control [2, 7] | tumor size compared to control [2, 7] | animal survival rate compared to control [2, 8] | tumor size compared to control [2, 8] | delay / survival prolongment translated to human life ([2]; life expectancy 18 months in mice, 90 years in human) [days] | cure rate ([2]; quinacrine 200 mg/kg daily oral, one animal tumor-free) [%] | ERSR activation and GRP78 target protein in tumor explants [3] | caspase 12 activation in tumor explants [3] | DNA damaging activity [4] | TUNEL labeling [5]
1 | CCN(CC)CCCC(C)Nc1c2ccc(Cl)cc2nc2ccc(OC)cc12 (centres unmarked) [quinacrine] | higher cytotoxicity in human cells than in rat cells | by far the most effective gliotoxic compound | powerful antiglioma action | 14 | significant reduction in tumor growth than controls | 14 | disappearance of the tumor | tumors decrease in size | already significant | 6-7 folds | increased survival rate | decrease in tumor size | survival rate was high | tumor size remained relatively constant | 851 | 16 | activaiton of ERSR and changes in GRP78 target protein | activation of caspase 12 is evident | not found to show DNA damaging activity | 
2 | C/C=C(/C)C(=O)O[C@H]1C(C)=C2[C@H]([C@@H]1OC(=O)CCCCCCC)[C@@](C)(OC(C)=O)C[C@H](OC(=O)CCC)[C@@]1(O)[C@H]2OC(=O)[C@@]1(C)O [THAP, thapsigargin] |  |  |  |  |  |  |  |  |  |  |  |  |  |  |  |  |  |  |  | clear increase of TUNEL labeling
